# Values joined by “and” are separate entries in the source; they are usually repeats but may differ in a detail not shown here. Equal values may be shown once. Toxic doses and inconclusive results are not listed.
# Tested on: CD2F1 mice, L1210 leukemia ip, survival T/C
# Experiment: NCI In Vivo Anticancer Drug Screen. Data for tumor model L1210 Leukemia (intraperitoneal) in CD2F1 (CDF1) mice
# Conditions: higher = longer survival
# Summary of the method: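 Tumor-bearing mice (transplanted tumor) were split into treated and vehicle control groups, and the measured endpoint of each treated group was divided by that of its vehicle controls.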
# [1] = endpoint: mean survival time, dose: 100.0 mg/kg/injection, schedule: Q04DX003 (ip), vehicle: saline with Tween-80
# [2] = endpoint: mean survival time, dose: 200.0 mg/kg/injection, schedule: Q04DX003 (ip), vehicle: saline with Tween-80
# [3] = endpoint: mean survival time, dose: 50.0 mg/kg/injection, schedule: Q01DX009 (ip), vehicle: saline with Tween-80
compound,measurement,setting,value
Nc1nnc2c3[nH]cnc3ncn12,T/C,"endpoint: mean survival time, dose: 100.0 mg/kg/injection, schedule: Q01DX001 (ip), vehicle: Klucel (hydroxypropylcellulose) (HPC)",98 % of control
same,T/C,"endpoint: mean survival time, dose: 200.0 mg/kg/injection, schedule: Q01DX001 (ip), vehicle: Klucel (hydroxypropylcellulose) (HPC)",95 % of control
same,T/C,"endpoint: mean survival time, dose: 400.0 mg/kg/injection, schedule: Q01DX001 (ip), vehicle: Klucel (hydroxypropylcellulose) (HPC)",104 % of control
CCOCCNCc1ccc(Cl)c(Cl)c1,T/C,[1],93 % of control
same,T/C,[2],94 % of control
NC(=O)c1cc(Cl)nc2nc(Cl)nc(N)c12,T/C,"endpoint: median survival time, dose: 25.0 mg/kg/injection, schedule: Q01DX009 (ip), vehicle: saline with Tween-80",89 % of control
same,T/C,"endpoint: median survival time, dose: 50.0 mg/kg/injection, schedule: Q01DX009 (ip), vehicle: saline with Tween-80",94 % of control
same,T/C,"endpoint: median survival time, dose: 100.0 mg/kg/injection, schedule: Q01DX009 (ip), vehicle: saline with Tween-80",100 % of control
same,T/C,"endpoint: median survival time, dose: 200.0 mg/kg/injection, schedule: Q01DX009 (ip), vehicle: saline with Tween-80",100 % of control
same,T/C,"endpoint: median survival time, dose: 400.0 mg/kg/injection, schedule: Q01DX009 (ip), vehicle: saline with Tween-80",101 % of control
CS(=O)(=O)C(Br)S(C)(=O)=O,T/C,"endpoint: mean survival time, dose: 3.13 mg/kg/injection, schedule: Q01DX009 (ip), vehicle: saline",102 % of control
same,T/C,"endpoint: mean survival time, dose: 6.25 mg/kg/injection, schedule: Q01DX009 (ip), vehicle: saline",102 % of control
same,T/C,"endpoint: mean survival time, dose: 6.25 mg/kg/injection, schedule: Q04DX003 (ip), vehicle: saline",96 % of control
same,T/C,"endpoint: mean survival time, dose: 12.5 mg/kg/injection, schedule: Q01DX009 (ip), vehicle: saline",101 % of control
same,T/C,"endpoint: mean survival time, dose: 12.5 mg/kg/injection, schedule: Q04DX003 (ip), vehicle: saline",93 % of control
same,T/C,"endpoint: mean survival time, dose: 25.0 mg/kg/injection, schedule: Q04DX003 (ip), vehicle: saline",109 % of control
COc1cc2c(c(OC)c1OC)-c1ccc(SC)c(=O)cc1[C@@H](NC(=O)CCl)CC2,T/C,"endpoint: mean survival time, dose: 0.05 mg/kg/injection, schedule: Q01DX009 (ip), vehicle: water",108 % of control
same,T/C,"endpoint: mean survival time, dose: 0.1 mg/kg/injection, schedule: Q01DX009 (ip), vehicle: water",106 % of control
same,T/C,"endpoint: mean survival time, dose: 0.2 mg/kg/injection, schedule: Q01DX009 (ip), vehicle: water",115 % of control
same,T/C,"endpoint: mean survival time, dose: 0.4 mg/kg/injection, schedule: Q01DX009 (ip), vehicle: water",108 % of control and 111 % of control
same,T/C,"endpoint: mean survival time, dose: 0.8 mg/kg/injection, schedule: Q01DX009 (ip), vehicle: water",120 % of control and 108 % of control
CC1=CC(=O)C(C(C)C)=CC1=O,T/C,"endpoint: mean survival time, dose: 25.0 mg/kg/injection, schedule: Q01DX009 (ip), vehicle: saline with Tween-80",101 % of control
same,T/C,[3],108 % of control
same,T/C,[1],88 % of control
N=C1c2ccccc2-c2ccccc21,T/C,[3],101 % of control
same,T/C,"endpoint: mean survival time, dose: 100.0 mg/kg/injection, schedule: Q01DX009 (ip), vehicle: saline with Tween-80",96 % of control
C=C(Br)CNCCCCCC,T/C,"endpoint: mean survival time, dose: 12.5 mg/kg/injection, schedule: Q04DX003 (ip), vehicle: Klucel (hydroxypropylcellulose) (HPC)",97 % of control
same,T/C,"endpoint: mean survival time, dose: 25.0 mg/kg/injection, schedule: Q04DX003 (ip), vehicle: Klucel (hydroxypropylcellulose) (HPC)",100 % of control
same,T/C,"endpoint: mean survival time, dose: 50.0 mg/kg/injection, schedule: Q04DX003 (ip), vehicle: Klucel (hydroxypropylcellulose) (HPC)",94 % of control
CN1C2CCC1C(Br)C(=O)C2 (stereo not drawn),T/C,"endpoint: median survival time, dose: 25.0 mg/kg/injection, schedule: Q01DX009 (ip), vehicle: saline",102 % of control
same,T/C,"endpoint: median survival time, dose: 50.0 mg/kg/injection, schedule: Q01DX009 (ip), vehicle: saline",105 % of control
same,T/C,"endpoint: median survival time, dose: 100.0 mg/kg/injection, schedule: Q01DX009 (ip), vehicle: saline",105 % of control
same,T/C,"endpoint: median survival time, dose: 200.0 mg/kg/injection, schedule: Q01DX009 (ip), vehicle: saline",101 % of control
CCCC(C#N)(CCCl)c1ccccc1 (stereo not drawn),T/C,[1],101 % of control
same,T/C,[2],101 % of control
same,T/C,"endpoint: mean survival time, dose: 400.0 mg/kg/injection, schedule: Q04DX003 (ip), vehicle: saline with Tween-80",96 % of control
CN(C)c1ccc(N=Nc2cccc(C(=O)[O-])c2)cc1.CN(C)c1ccc(N=Nc2cccc(C(=O)[O-])c2)cc1.NC1CCCCC1N.[Pt+4],T/C,"endpoint: median survival time, dose: 3.12 mg/kg/injection, schedule: Q04DX003 (ip), vehicle: saline with Tween-80",116 % of control and 98 % of control
same,T/C,"endpoint: median survival time, dose: 6.25 mg/kg/injection, schedule: Q04DX003 (ip), vehicle: saline with Tween-80",115 % of control and 109 % of control
same,T/C,"endpoint: median survival time, dose: 12.5 mg/kg/injection, schedule: Q04DX003 (ip), vehicle: saline with Tween-80",101 % of control
same,T/C,"endpoint: median survival time, dose: 100.0 mg/kg/injection, schedule: Q04DX003 (ip), vehicle: saline with Tween-80",375 % of control
same,T/C,"endpoint: median survival time, dose: 200.0 mg/kg/injection, schedule: Q04DX003 (ip), vehicle: saline with Tween-80",104 % of control
Nc1nc2c(ncn2C2CC(O)C(CO)O2)c(=O)n1N (stereo not drawn),T/C,"endpoint: mean survival time, dose: 75.0 mg/kg/injection, schedule: Q01DX001 (ip), vehicle: saline",97 % of control
same,T/C,"endpoint: mean survival time, dose: 150.0 mg/kg/injection, schedule: Q01DX001 (ip), vehicle: saline",100 % of control
